Measurements taken from ChEMBL document CHEMBL3091356, “Salen and tetrahydrosalen derivatives act as effective inhibitors of the tumor-associated carbonic anhydrase XII--a new scaffold for designing isoform-selective inhibitors” (Bioorg Med Chem Lett, 2013).

Columns and labels:
[1] = molecular target: Carbonic anhydrase 1 (Homo sapiens, UniProt P00915); assay: Inhibition of human recombinant carbonic anhydrase 1-mediated CO2 hydration preincubated for 15 mins by stopped-flow assay
[2] = molecular target: Carbonic anhydrase 9 (Homo sapiens, UniProt Q16790)
Description: Inhibition of human recombinant carbonic anhydrase 9-mediated CO2 hydration preincubated for 15 mins by stopped-flow assay

[3] = molecular target: Carbonic anhydrase 12 (Homo sapiens, UniProt O43570); assay: Inhibition of human recombinant carbonic anhydrase 12-mediated CO2 hydration preincubated for 15 mins by stopped-flow assay
[4] = molecular target: Carbonic anhydrase 2 (Homo sapiens, UniProt P00918); assay: Inhibition of human recombinant carbonic anhydrase 2-mediated CO2 hydration preincubated for 15 mins by stopped-flow assay

Chain of Carbonic anhydrase 12 (O43570 whole entry): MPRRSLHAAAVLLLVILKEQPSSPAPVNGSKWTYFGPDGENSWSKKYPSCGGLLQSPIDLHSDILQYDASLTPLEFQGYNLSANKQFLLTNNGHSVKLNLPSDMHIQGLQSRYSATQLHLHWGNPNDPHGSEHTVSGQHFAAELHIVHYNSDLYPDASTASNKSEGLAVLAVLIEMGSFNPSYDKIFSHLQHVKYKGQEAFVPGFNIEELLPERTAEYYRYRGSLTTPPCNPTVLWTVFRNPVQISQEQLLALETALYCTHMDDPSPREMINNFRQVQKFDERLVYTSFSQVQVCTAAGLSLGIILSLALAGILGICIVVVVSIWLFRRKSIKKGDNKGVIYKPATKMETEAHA
Chain of Carbonic anhydrase 1 (P00915 whole entry): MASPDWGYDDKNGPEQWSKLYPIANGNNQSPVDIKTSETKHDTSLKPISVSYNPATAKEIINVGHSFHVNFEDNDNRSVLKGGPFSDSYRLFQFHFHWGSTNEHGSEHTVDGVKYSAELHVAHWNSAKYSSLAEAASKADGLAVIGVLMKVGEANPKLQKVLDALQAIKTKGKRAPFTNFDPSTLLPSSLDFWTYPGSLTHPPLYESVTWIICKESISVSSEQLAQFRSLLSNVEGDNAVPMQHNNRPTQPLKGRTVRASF

| Compound | Ki [1] [µM] | Ki [2] [µM] | Ki [3] [µM] | Ki [4] [µM] |
| --- | --- | --- | --- | --- |
| Oc1ccccc1CNc1ccccc1NCc1ccccc1O | > 100 | 0.22 |  |  |
| Oc1ccccc1CNCCCNCc1ccccc1O | > 100 | 3.37 | 0.04 | 0.39 |
| O=[N+]([O-])c1ccccc1/C=N/CCCCCC/N=C/c1ccccc1[N+](=O)[O-] | > 100 | > 100 |  | > 100 |
| Oc1ccccc1/C=N/c1ccccc1/N=C/c1ccccc1O | > 100 | 2.45 |  |  |
| Oc1ccccc1CNCCNCc1ccccc1O | > 100 | > 100 |  |  |
| Oc1ccccc1/C=N/CCCC/N=C/c1ccccc1O | > 100 |  |  |  |
| Oc1ccccc1/C=N/CCCCCC/N=C/c1ccccc1O | > 100 | 4.35 | 0.43 | 3.6 |
| Oc1ccccc1CNCCCCCCNCc1ccccc1O | > 100 | 2.51 |  |  |

Other lines, results leading:

| Ki [1] [µM] | Ki [2] [µM] | Ki [3] [µM] | Ki [4] [µM] | Compound |
| --- | --- | --- | --- | --- |
| > 100 | 4.47 |  |  | Oc1ccccc1/C=N/CCCCC/N=C/c1ccccc1O |
| > 100 | > 100 | 0.28 | 1.72 | Oc1ccccc1/C=N/CC/N=C/c1ccccc1O |
| > 100 | 15.7 |  |  | Oc1ccccc1/C=N/CCC/N=C/c1ccccc1O |
| > 100 | 4.19 |  |  | Oc1ccccc1CNCCCCCNCc1ccccc1O |
| > 100 | > 100 |  | > 100 | COc1cccc(/C=N/CC/N=C/c2cccc(OC)c2O)c1O |
| > 100 | 4.37 |  |  | Oc1ccccc1CNCCCCNCc1ccccc1O |
